These results are taken from ChEMBL document CHEMBL3045629, “Synthesis and Herbicidal Activity of Hydantocidin Analogues: Modification of the Carbonyl Groups in Spirohydantoin” (1995).

Holding throughout (assay type): functional
For test [1], the system named is Abutilon theophrasti. The test is described as follows: Herbicidal activity against three-leaf stage Abutilon theophrasti (velvetleaf) exposed to foliar compound spraying at 1000 ppm measured 10 days after compound treatment.
For test [2], the system named is Ambrosia artemisiifolia. Briefly: Herbicidal activity against three-leaf stage Ambrosia artemisiifolia (ragweed) exposed to foliar compound spraying at 1000 ppm measured 10 days after compound treatment.
Test [3] deals with Xanthium strumarium. The test is described as follows: Herbicidal activity against three-leaf stage Xanthium strumarium (cocklebur) exposed to foliar compound spraying at 1000 ppm measured 10 days after compound treatment.
The subject of test [4] is Ipomoea purpurea. Briefly: Herbicidal activity against three-leaf stage Ipomoea purpurea (common morning-glory) exposed to foliar compound spraying at 1000 ppm measured 10 days after compound treatment.
The subject of test [5] is Solanum nigrum. Briefly: Herbicidal activity against three-leaf stage Solanum nigrum (black nightshade) exposed to foliar compound spraying at 1000 ppm measured 10 days after compound treatment.
The subject of test [6] is Sorghum halepense. The test is described as follows: Herbicidal activity against three-leaf stage Sorghum halepense (Johnson grass) exposed to foliar compound spraying at 1000 ppm measured 10 days after compound treatment.
The test system of test [7] is Panicum dichotomiflorum. Briefly: Herbicidal activity against three-leaf stage Panicum dichotomiflorum exposed to foliar compound spraying at 1000 ppm measured 10 days after compound treatment.
Test [8] deals with Digitaria sanguinalis. Briefly: Herbicidal activity against three-leaf stage Digitaria sanguinalis (hairy crabgrass) exposed to foliar compound spraying at 1000 ppm measured 10 days after compound treatment.
Test [9] has as its system Echinochloa crus-galli. Briefly: Herbicidal activity against three-leaf stage Echinochloa crus-galli (barnyard grass) exposed to foliar compound spraying at 1000 ppm measured 10 days after compound treatment.
For test [10], the system named is Setaria viridis. The test is described as follows: Herbicidal activity against three-leaf stage Setaria viridis (green foxtail) exposed to foliar compound spraying at 1000 ppm measured 10 days after compound treatment.

With `O=C1NC(NCc2ccccc2)=N[C@]12O[C@H](CO)[C@@H](O)[C@H]2O`, the Activity amounted to 0% in test [1]; 95% in [2]; 95% in test [3]; 10% in test [4]; 30% in [5]; 0% in test [6]. Further, the Activity in test [7], in test [8], in [9] and in test [10] was 0% each time.
With `O=C1NC[C@]2(N1)O[C@H](CO)[C@@H](O)[C@H]2O`, the Activity worked out at 10% in [1]; 10% in test [2]; 0% in test [3]; 0% in [4]; 10% in test [5]; 10% in [6]. The Activity in test [7] came to 10%; in [8], 0%; in test [9], 10%; in [10], 10%.
For the compound `O=C1NC(=O)[C@]2(N1)O[C@H](CO)[C@@H](O)[C@H]2O` [HYDANTOCIDIN], the Activity in [1], in test [2], in [3], in test [4], in test [5] and in test [6] was 95% in each case. The Activity in [7], in test [8], in test [9] and in test [10] was 95% each time.
